Data on 16 molecules can be found in article PMC4224963 (ChemMedChem, 2014).

The target in series [1] is T1, human NAAA (Homo sapiens, UniProt Q02083).
T1 sequence (Q02083 126-359 limits assumed): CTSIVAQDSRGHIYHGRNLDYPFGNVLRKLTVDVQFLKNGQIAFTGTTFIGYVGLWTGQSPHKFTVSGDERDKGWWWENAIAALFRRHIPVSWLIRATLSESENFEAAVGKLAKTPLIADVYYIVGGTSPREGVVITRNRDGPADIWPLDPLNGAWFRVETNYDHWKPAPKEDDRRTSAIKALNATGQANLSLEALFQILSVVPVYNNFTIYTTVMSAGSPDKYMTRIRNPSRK
T1 sequence (Q02083 29-125 limits assumed): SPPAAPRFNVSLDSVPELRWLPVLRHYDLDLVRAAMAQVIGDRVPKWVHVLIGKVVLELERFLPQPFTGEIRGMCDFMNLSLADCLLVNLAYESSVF
The series is described as follows: Fluorogenic h-NAAA assay. It is filed as biochemical.

Series [2] in a line: In vitro mouse plasma stability. It counts as in vitro ADME.
In a further series the test system is rat-NAAA (r-NAAA). Particulars: read-out: r-NAAA IC50; ref 19a, 19c, 19d, 19f; cited from earlier work.
Series [3] is described as follows: In vitro rat plasma stability. It counts as in vitro ADME.
Series [4] concerns the target T2, human NAAA (Homo sapiens, UniProt Q02083).
T2 sequence (Q02083 29-359): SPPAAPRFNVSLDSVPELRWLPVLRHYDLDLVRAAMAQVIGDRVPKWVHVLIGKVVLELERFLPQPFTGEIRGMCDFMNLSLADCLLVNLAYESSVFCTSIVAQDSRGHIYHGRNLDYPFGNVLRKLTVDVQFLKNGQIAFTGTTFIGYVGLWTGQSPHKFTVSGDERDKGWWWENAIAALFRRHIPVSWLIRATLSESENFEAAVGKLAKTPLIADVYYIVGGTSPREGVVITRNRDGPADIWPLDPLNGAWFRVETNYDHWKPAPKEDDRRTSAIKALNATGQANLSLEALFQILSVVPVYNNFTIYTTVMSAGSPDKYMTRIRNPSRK
The series is described as follows: h-NAAA inhibition, UPLC-MS-based assay. It counts as biochemical. Conditions: for IC50: h–NAAA IC50 (μM) ± SD, LC/MS method, mean of three or more determinations.

The target in a further series is T3, human AC (Homo sapiens, UniProt Q13510).
T3 sequence (Q13510 22-395): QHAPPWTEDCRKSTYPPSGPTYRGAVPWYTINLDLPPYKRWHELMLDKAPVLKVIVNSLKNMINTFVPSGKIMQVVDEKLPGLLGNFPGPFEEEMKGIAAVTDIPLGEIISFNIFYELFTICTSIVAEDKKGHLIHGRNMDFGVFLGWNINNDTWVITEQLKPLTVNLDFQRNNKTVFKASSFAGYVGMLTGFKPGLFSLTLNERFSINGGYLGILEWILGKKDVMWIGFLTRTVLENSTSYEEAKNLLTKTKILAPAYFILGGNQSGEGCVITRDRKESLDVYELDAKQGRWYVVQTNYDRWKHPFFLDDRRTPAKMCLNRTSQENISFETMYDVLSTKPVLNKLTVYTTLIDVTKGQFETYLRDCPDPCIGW
Kind of series: h-AC inhibition, UPLC-MS-based assay. It is filed as biochemical. Conditions: for IC50: h–AC IC50 (μM) ± SD, LC/MS method, mean of three or more determinations.

The next series deals with T4, human FAAH (Homo sapiens, UniProt O00519).
T4 sequence (O00519 1-579): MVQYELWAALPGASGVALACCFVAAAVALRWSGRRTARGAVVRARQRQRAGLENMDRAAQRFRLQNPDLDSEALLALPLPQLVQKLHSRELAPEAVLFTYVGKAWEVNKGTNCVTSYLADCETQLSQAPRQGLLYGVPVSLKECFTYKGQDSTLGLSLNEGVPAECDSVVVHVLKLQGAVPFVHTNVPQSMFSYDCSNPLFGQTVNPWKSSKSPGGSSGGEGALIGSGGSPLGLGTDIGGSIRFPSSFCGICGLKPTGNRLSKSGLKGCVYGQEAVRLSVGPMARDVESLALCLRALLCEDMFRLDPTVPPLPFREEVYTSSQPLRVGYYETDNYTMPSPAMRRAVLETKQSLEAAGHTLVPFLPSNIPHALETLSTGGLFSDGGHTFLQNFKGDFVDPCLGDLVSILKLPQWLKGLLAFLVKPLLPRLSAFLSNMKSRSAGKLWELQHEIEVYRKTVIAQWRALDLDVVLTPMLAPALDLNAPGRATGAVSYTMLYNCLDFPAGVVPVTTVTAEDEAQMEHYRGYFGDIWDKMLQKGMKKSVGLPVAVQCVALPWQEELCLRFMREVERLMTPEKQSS
The series is described as follows: h-FAAH inhibition. It is filed as biochemical. Conditions: read-out: h–FAAH (% Inhib).

The nature of series [5]: Plasma pharmacokinetics in rats after IV or oral dosing. It counts as in vivo. Conditions: rat.

As to `O=C(CCc1ccccc1)N[C@H]1COC1=O` [Compound 1, (S)–N–(2–oxo–3–oxetanyl)–3–phenylpropionamide, reference compound], the values for the IC50 against human NAAA [1] and in the series on rat-NAAA (r-NAAA) were 1.29 µM and 0.42 µM, respectively. The half-life (as a rule, how long it takes for the measured level to halve) at 2 µM in series [2] is less than 0.0167 h.

As to `C[C@@H]1OC(=O)[C@@H]1NC(=O)OCCCCCc1ccccc1` [Compound 2, 5–phenylpentyl N–[(2S,3R)–2–methyl–4–oxo–oxetan–3–yl]carbamate, reference compound], the IC50 (in general, the concentration that gives 50% inhibition) on human NAAA [1] was 0.047 ± 0.005 µM; in the series on rat-NAAA (r-NAAA), 0.05 µM.

`O=C(CCc1ccccc1)N[C@H]1CNC1=O` [Compound 11a, 3–Phenyl–N–[(S)–2-oxoazetidin–3–yl]–propanamide]: the half-life at 2 µM in series [2] was greater than 2 h. Also, the half-life at […] in series [3] is greater than 2 h.

With `O=C(CCCc1ccccc1)N[C@H]1CNC1=O` [Compound 11b, N–[(S)–2-Oxoazetidin–3–yl]–4–phenyl–butanamide], the midpoint of inhibition at human NAAA [1], the IC50, lay at 73.4 ± 10.7 µM.

As to `O=C(CCCCc1ccccc1)N[C@H]1CNC1=O` [Compound 11c, 5–Phenyl–N–[(S)–2–oxoazetidin–3–yl]–pentanamide], inhibition against human NAAA [1] was half-maximal at 27.2 ± 1.89 µM (IC50).

In the case of `O=C(CCCCCc1ccccc1)N[C@H]1CNC1=O` [Compound 11d, N–[(S)–2–Oxoazetidin–3–yl]–6–phenyl–hexanamide], on human NAAA [1], the IC50 is 12.1 ± 2.18 µM.

For the molecule `O=C(CCCCCCc1ccccc1)N[C@H]1CNC1=O` [Compound 11e, 7–Phenyl–N–[(S)–2–oxoazetidin–3–yl]–heptanamide], on human NAAA [1], half-maximal inhibition (IC50) was put at 0.6 ± 0.17 µM.

As for `CCCCCCC(=O)N[C@H]1CNC1=O` [Compound 11f, N–[(S)–2–Oxoazetidin–3–yl]–heptanamide], inhibition at human NAAA [1] was half-maximal at 27 ± 6.15 µM (IC50). Further, on human NAAA [1] (fluorogenic assay), the “drop in potency (h-NAAA) compared to 11e” value is listed as greater than 40 fold.

With `CCCCCCCC(=O)N[C@H]1CNC1=O` [Compound 11g, N–[(S)–2–Oxoazetidin–3–yl]–octanamide], at human NAAA [1], the IC50 worked out at 1.91 ± 0.28 µM.

Molecule `CCCCCCCCC(=O)N[C@H]1CNC1=O` [Compound 11h, N–[(S)–2–Oxoazetidin–3–yl]–nonanamide] displayed an IC50 at human NAAA [4] of 0.13 ± 0.03 µM. In addition, the “selectivity for NAAA vs. AC” value on human AC (h-AC IC50 / h-NAAA IC50, LC/MS assays) was “ca. 19 fold”. The same molecule showed an IC50 against human AC of 2.53 ± 0.06 µM. Besides, the inhibition at 100 µM on human FAAH was less than 10%. Further, the half-life at 2 µM in series [2] was 1.72 h. For the same molecule, the half-life at […] in series [3] was greater than 2 h. In series [5] (iv, 3 mg/kg), the AUC (in general, the area under the concentration-time curve, a measure of exposure) amounted to 111 ng·h/mL; the highest level (Cmax) was 397 ng/mL; the Tmax – broadly, the time from dosing to the highest level – is 4.8 min; the clearance is 702 mL/min/kg. In addition, in series [5] (po, 10 mg/kg), the AUC came to 247 ng·h/mL and the Cmax (in general, the peak of the concentration-time curve) came out at 570 ng/mL.

On to `CCCCC/C=C/CC(=O)N[C@H]1CNC1=O` [Compound 11i, (E)–N–[(S)–2–Oxoazetidin–3–yl]–non–3–enamide], for which the IC50 against human NAAA [1] was 3.09 ± 0.5 µM. For the same molecule, on human NAAA [1] (fluorogenic assay), the “loss/drop in potency (h-NAAA) compared to 11h” value (“loss/drop … compared to 11h” below) was determined as 10 fold.

`CCCCC/C=C\CC(=O)N[C@H]1CNC1=O` [Compound 11j, (Z)–N–[(S)–2–Oxoazetidin–3–yl]–non–3–enamide] yielded an IC50 against human NAAA [1] of 3.9 ± 0.86 µM. In addition, on human NAAA [1] (fluorogenic assay), the “loss/drop … compared to 11h” value is listed as 10 fold.

The molecule `CCCCc1ccc(C(=O)N[C@H]2CNC2=O)cc1` [Compound 11k, 4–Butyl–N–[(S)–2–oxoazetidin–3–yl]–benzamide] registered an IC50 against human NAAA [1] of 13.8 ± 3.41 µM.

For the molecule `CCCCCCCCCCC(=O)N[C@H]1CNC1=O` [Compound 11p, N–[(S)–2–Oxoazetidin–3–yl]–undecanamide], at human NAAA [4] (LC/MS assay), the “increase in potency toward h–NAAA compared to 11h” value was “ca. 2 fold”. Moreover, the IC50 on human NAAA [4] was 0.056 ± 0.01 µM; against human AC, 0.33 ± 0.1 µM. Moreover, the “increase in potency toward h–AC compared to 11h” value on human AC (LC/MS assay) is recorded as “ca. 7 fold”. For the same molecule, the inhibition at 100 µM on human FAAH is less than 10%.

For `CCCCCCCCC(=O)N[C@@H]1CNC1=O` [Compound 12h, N–[(R)–2–Oxoazetidin–3–yl]–nonanamide], the IC50 at human NAAA [1] is 74.5 ± 9.08 µM; against human NAAA [4] it was 45.5 µM; against human AC, 27.8 µM. Besides, the “loss/drop … compared to 11h” value at human NAAA [1] (fluorogenic assay) is greater than 200 fold. The inhibition at 100 µM at human FAAH is less than 10%.

`CCCCCCCNC(=O)N[C@H]1CNC1=O` [Compound 33, 1–Heptyl–3–[(S)–2–oxoazetidin–3–yl]–urea] showed an IC50 on human NAAA [1] of 5.76 ± 0.9 µM.
